Experimental data taken from PubChem BioAssay (NCI).
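Growth conditions: 96-well plates. Treatment: test compound, 48 hours, 5 concentrations. Analysis: linear interpolation between bracketing concentrations; unreached endpoints set to highest concentration. GI50 marks 50% less growth. TGI: total growth inhibition.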

Assays:
Assay in all cases: inhibition of tumour cell growth, NCI panel, 48 h
[1] = tested on: UACC-257 melanoma
[2] = tested on: SF-295 CNS
[3] = tested on: NCI-H226 lung
[4] = tested on: OVCAR-8 ovarian
[5] = tested on: RXF 393 renal
[6] = tested on: OVCAR-4 ovarian
[7] = tested on: SF-268 CNS
[8] = tested on: MALME-3M melanoma
[9] = tested on: HL-60(TB) leukemia
[10] = tested on: HCT-116 colon
[11] = tested on: SW-620 colon
[12] = tested on: SNB-75 CNS

Row | SMILES | TGI [1] [µM] | TGI [2] [µM] | TGI [3] [µM] | TGI [4] [µM] | TGI [5] [µM] | TGI [6] [µM] | TGI [7] [µM] | TGI [8] [µM] | TGI [9] [µM] | TGI [10] [µM] | TGI [11] [µM] | TGI [12] [µM] | GI50 [5] [µM] | GI50 [11] [µM] | GI50 [9] [µM] | GI50 [10] [µM]
1 | Cc1cc(S(=O)(=O)Nc2nc3ccccc3nc2-c2cccc([N+](=O)[O-])c2)c(S)cc1Cl | 36 | 59.8 | 44.5 | 80.9 | 74.4 | 66.8 | 56.2 | 37.3 | 44.4 | 35.2 | – | – | – | – | – | –
2 | O=C1OC2(CC1C1(O)C3CC4CC(C3)CC1C4)C1CC3CC(C1)CC2C3 (stereo not given) | > 100 | 73.1 | > 100 | > 100 | > 100 | 76.6 | > 100 | > 100 | > 100 | > 100 | > 100 | > 100 | – | – | – | –
3 | O=C1C(Cl)=C(Nc2ccc(S(=O)(=O)O)cc2)C(=O)c2ccccc21 | > 100 | 82.5 | 61.9 | 90.6 | 37.6 | > 100 | > 100 | 36.9 | > 100 | > 100 | 51.1 | > 100 | – | – | – | –
4 | COc1nc(=O)n(COC(CO)CN2C(=O)c3ccccc3C2=O)cc1Cc1cccc(OCc2ccccc2)c1 (stereo not given) | – | 48.9 | 54.2 | > 100 | – | 57.8 | – | – | 41.8 | > 100 | > 100 | 46.2 | – | – | – | –
5 | CO/N=C(/C)c1ccc(NC(=O)CSc2nnc(-c3ccncc3)n2-c2ccccc2)cc1 | – | – | – | – | 4.93 | – | – | – | > 100 | > 100 | > 100 | – | 2.24 | > 100 | > 100 | 3.43
6 | OCCNCCN1CCN(CCCN2c3ccccc3Sc3ccc(C(F)(F)F)cc32)CC1 | 34.6 | 34.9 | 49.9 | 31.9 | 47.5 | 48.8 | 44 | 45 | > 100 | 31.7 | 35.3 | – | – | – | – | –
7 | O=C1C=CC2(C=C1)O[C@H](Cc1ccccc1)[C@@H](Cc1ccccc1)O2 | 4.51 | 5.15 | 0.902 | 0.503 | 0.974 | 1.69 | 2.48 | 4.77 | 6.52 | – | 0.254 | 7.23 | – | – | – | –
8 | C=CC1(NC(=O)c2ccccc2)CCC(C(C)(C)C)CC1 (stereo not given) | > 77 | 74 | > 71.6 | > 100 | > 85.8 | > 100 | > 100 | > 94.9 | 33 | 55.1 | > 84.4 | > 81.5 | – | – | – | –
9 | CCCNC(=O)C(C)C1CCC2(C)C=CC(=O)C(C)=C2C1O (stereo not given) | > 100 | > 100 | > 100 | > 100 | > 100 | > 100 | > 100 | – | > 100 | > 100 | > 100 | > 100 | – | – | – | –
